One block for each compound: values may come before it.
How the values were obtained:
[1] = biological target: T1, Mineralocorticoid receptor (Rattus norvegicus, UniProt P22199); test: Displacement of [3H]-Aldosterone from MR in rat renal soluble fraction measured after 18 hrs in presence of glucocorticoid receptor antagonist RU-486 by liquid scintillation counting method
T1 sequence (P22199 whole entry): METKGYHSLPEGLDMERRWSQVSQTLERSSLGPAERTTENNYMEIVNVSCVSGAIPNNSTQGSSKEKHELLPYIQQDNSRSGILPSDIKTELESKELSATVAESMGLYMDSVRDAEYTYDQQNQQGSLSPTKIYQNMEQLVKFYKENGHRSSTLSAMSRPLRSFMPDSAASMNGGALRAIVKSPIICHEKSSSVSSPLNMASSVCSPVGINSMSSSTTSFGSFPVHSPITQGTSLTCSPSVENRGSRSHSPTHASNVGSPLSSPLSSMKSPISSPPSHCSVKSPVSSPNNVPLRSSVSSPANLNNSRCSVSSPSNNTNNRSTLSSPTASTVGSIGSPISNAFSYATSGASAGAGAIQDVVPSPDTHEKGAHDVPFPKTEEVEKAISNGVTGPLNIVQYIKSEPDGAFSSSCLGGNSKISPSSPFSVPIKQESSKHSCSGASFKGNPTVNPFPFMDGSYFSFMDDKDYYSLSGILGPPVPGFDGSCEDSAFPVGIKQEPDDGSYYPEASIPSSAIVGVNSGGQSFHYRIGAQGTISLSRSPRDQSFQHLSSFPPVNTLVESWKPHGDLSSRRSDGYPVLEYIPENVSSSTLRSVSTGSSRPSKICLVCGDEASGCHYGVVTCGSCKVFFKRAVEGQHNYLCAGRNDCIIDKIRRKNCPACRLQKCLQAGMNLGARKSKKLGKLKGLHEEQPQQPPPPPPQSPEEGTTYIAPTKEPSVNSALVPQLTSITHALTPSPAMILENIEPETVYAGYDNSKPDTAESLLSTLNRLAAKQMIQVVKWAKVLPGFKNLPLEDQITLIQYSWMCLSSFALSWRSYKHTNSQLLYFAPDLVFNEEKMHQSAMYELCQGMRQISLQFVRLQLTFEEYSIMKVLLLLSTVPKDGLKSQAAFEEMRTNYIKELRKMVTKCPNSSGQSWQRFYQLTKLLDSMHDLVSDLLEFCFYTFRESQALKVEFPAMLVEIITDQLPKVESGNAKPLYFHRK

[2] = biological target: Mineralocorticoid receptor (Homo sapiens, UniProt P08235, C808S); test: Binding affinity to N-terminal 6His-GST-tagged human MR LBD (727 to 984 residues) harboring C808S mutation expressed in Escherichia coli BL21DE3/corticosterone complex by AlphaScreen assay
Mineralocorticoid receptor (Homo sapiens, UniProt P08235, C808S), sequence (P08235 whole entry C808S, the tested form may be a part): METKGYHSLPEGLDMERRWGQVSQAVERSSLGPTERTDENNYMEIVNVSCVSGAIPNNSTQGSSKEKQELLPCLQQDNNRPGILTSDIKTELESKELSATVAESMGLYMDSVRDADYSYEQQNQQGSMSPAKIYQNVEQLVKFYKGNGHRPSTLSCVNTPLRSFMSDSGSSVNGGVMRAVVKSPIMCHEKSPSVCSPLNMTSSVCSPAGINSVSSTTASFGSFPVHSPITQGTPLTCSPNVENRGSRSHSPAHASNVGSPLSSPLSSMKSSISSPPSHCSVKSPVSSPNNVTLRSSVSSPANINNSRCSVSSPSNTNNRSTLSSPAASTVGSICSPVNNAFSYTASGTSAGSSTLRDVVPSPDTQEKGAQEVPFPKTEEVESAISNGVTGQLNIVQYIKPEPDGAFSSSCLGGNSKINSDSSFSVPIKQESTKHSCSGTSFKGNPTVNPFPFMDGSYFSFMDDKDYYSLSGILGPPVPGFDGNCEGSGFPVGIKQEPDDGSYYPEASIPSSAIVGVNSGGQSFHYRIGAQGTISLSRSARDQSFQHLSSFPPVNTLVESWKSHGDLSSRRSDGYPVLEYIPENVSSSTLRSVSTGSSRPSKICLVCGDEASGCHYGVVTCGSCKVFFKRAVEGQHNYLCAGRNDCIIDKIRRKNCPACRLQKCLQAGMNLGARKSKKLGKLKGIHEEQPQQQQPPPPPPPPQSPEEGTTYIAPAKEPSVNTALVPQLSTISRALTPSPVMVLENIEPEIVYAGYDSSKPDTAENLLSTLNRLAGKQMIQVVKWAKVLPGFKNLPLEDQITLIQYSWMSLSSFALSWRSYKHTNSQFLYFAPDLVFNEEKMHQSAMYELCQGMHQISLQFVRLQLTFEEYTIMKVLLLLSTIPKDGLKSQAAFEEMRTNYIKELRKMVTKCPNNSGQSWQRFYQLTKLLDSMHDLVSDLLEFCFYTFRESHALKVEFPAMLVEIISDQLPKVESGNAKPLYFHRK

[3] = biological target: T2, Mineralocorticoid receptor (Homo sapiens, UniProt P08235); test: Binding affinity to MR (unknown origin)
T2 sequence (P08235 whole entry): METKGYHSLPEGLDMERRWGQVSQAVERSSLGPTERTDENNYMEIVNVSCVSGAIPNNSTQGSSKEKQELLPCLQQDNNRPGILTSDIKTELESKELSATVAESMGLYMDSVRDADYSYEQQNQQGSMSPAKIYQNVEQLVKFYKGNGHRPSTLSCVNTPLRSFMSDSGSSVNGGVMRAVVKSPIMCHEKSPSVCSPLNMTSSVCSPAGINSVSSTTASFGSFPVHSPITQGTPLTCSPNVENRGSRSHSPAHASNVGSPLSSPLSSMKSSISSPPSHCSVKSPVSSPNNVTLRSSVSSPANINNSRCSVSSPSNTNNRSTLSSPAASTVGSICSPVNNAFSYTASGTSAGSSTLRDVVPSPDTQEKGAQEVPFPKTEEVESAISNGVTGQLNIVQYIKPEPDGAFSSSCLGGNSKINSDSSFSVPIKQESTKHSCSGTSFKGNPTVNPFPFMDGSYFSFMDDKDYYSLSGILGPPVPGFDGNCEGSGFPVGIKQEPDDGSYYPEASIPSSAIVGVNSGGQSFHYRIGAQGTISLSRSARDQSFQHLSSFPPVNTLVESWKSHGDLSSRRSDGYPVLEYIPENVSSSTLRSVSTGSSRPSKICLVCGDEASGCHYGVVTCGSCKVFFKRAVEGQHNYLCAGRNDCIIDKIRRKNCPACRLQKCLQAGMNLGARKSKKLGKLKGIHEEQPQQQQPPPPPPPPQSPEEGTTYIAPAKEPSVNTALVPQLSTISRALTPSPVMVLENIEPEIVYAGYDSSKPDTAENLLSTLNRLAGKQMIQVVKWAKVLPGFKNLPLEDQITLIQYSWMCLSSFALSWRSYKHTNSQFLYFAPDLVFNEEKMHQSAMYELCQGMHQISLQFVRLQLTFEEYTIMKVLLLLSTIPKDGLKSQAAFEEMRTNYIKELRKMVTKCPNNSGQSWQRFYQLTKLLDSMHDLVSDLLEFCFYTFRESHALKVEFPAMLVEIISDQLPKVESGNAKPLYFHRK

Progesterone receptor = biological target: T3, Progesterone receptor (Homo sapiens, UniProt P06401); test: Antagonist activity at GAL4-fused human PR LBD (680 to 933 residues) expressed in CHO-K1 cells assessed as inhibition of progesterone-induced transactivation activity after 5 to 6 hrs by luciferase reporter gene assay; type: cell-based
T3 sequence (P06401 whole entry): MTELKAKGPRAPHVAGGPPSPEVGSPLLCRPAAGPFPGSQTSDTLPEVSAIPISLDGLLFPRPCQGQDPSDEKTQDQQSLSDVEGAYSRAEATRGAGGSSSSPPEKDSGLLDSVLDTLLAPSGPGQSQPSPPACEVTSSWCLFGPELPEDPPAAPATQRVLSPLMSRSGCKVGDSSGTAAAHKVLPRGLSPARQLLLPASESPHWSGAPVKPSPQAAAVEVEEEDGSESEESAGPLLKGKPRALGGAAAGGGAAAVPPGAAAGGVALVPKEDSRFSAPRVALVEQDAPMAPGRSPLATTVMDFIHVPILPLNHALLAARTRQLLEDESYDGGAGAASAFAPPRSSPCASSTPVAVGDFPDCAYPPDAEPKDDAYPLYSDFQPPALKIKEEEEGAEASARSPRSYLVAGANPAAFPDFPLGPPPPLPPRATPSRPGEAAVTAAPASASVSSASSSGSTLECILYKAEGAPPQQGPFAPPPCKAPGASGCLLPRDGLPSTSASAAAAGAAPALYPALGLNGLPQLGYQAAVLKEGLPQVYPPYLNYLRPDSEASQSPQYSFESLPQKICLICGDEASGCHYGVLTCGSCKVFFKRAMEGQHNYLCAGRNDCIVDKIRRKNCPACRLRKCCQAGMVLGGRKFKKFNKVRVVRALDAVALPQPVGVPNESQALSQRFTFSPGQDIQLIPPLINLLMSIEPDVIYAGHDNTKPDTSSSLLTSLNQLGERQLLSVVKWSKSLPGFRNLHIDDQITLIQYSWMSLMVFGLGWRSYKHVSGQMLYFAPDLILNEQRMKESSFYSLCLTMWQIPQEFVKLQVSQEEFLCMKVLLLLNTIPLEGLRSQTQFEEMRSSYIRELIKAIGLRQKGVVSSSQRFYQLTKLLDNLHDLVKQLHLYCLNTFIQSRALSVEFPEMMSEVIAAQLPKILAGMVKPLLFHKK

[4] = biological target: T2, Mineralocorticoid receptor; test: Antagonist activity at Gal4-fused human MR LBD (734 to 985 residues) expressed in CHO-K1 cells after 5 to 6 hrs by luciferase reporter gene assay; type: cell-based
Androgen receptor = biological target: T4, Androgen receptor (Homo sapiens, UniProt P10275); test: Antagonist activity at GAL4-fused human AR LBD (667 to 919 residues) expressed in CHO-K1 cells assessed as inhibition of dihydrotestosterone-induced transactivation activity after 5 to 6 hrs by luciferase reporter gene assay; type: cell-based
T4 sequence (P10275 whole entry): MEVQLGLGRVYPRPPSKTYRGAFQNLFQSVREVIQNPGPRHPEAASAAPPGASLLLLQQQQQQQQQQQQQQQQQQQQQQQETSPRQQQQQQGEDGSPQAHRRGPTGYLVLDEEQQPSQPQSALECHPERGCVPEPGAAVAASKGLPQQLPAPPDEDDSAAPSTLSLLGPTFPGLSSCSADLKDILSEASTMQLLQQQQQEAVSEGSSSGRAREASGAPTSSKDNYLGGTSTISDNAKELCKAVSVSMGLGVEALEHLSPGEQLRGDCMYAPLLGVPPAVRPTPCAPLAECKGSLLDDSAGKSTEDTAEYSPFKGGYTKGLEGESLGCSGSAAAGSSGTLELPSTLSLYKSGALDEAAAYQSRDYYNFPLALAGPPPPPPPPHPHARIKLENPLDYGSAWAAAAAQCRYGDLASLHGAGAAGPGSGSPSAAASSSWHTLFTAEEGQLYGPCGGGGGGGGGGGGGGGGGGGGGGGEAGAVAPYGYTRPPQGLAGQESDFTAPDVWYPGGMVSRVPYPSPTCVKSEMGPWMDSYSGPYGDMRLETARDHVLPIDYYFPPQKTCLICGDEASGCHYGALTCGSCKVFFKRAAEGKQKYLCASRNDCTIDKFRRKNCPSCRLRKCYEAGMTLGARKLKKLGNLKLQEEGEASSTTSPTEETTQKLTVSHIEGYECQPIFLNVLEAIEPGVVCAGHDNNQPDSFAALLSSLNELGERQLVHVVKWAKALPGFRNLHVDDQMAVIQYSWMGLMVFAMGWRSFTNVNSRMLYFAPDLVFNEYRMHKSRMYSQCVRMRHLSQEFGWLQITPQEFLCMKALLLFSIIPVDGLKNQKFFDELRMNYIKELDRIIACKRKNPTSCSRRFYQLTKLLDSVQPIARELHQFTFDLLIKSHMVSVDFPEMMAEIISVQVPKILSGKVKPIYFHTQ

Glucocorticoid receptor = biological target: T5, Glucocorticoid receptor (Homo sapiens, UniProt P04150); test: Antagonist activity at GAL4-fused human GR LBD (443 to 777 residues) expressed in CHO-K1 cells assessed as inhibition of dexamethasone-induced transactivation activity after 5 to 6 hrs by luciferase reporter gene assay; type: cell-based
T5 sequence (P04150 whole entry): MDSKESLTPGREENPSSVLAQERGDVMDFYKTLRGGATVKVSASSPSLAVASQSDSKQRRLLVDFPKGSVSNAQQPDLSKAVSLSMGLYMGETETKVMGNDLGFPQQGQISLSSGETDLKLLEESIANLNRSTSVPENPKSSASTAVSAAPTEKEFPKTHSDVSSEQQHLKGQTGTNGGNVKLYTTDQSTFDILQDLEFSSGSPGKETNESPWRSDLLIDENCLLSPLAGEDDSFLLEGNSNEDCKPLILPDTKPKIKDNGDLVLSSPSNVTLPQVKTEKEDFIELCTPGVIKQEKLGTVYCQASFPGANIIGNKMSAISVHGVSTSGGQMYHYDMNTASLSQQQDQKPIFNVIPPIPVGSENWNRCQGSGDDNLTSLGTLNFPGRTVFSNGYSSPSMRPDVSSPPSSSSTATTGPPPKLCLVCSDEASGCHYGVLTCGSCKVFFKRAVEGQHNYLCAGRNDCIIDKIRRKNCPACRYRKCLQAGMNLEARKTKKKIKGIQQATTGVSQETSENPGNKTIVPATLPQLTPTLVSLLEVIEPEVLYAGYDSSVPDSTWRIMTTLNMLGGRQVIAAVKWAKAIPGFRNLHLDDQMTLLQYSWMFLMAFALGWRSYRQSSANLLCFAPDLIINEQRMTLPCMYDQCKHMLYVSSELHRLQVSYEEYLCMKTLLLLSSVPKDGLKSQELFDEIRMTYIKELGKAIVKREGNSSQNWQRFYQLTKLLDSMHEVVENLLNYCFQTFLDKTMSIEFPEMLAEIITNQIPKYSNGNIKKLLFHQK

[5] = Half life in human hepatocytes; type: ADME, cell-based, Hepatocyte
[6] = biological target: T6, Mineralocorticoid receptor (Homo sapiens) (UniProt P08235); test: Antagonist activity at full-length human MR expressed in CHO-K1 cells assessed as inhibition of aldosterone-induced response measured after overnight incubation by luminesence analysis; type: cell-based
T6 sequence (whole entry): T2 sequence (P08235 whole entry)

[7] = Half life in human liver microsomes; type: ADME, microsome

Compound: CC(C)C[C@H](NC(=O)[C@H](CO)NC(=O)[C@H](CCCCN)NC(=O)[C@H](CCC(N)=O)NC(=O)[C@H](CCC(N)=O)NC(=O)[C@H](C)N)C(=O)N[C@@H](CC(C)C)C(=O)N[C@@H](CCC(N)=O)C(=O)N[C@@H](CCC(N)=O)C(=O)N[C@@H](CC(C)C)C(=O)N[C@@H](CC(C)C)C(=O)N[C@H](C(=O)N[C@@H](CCC(=O)O)C(=O)O)[C@@H](C)O
IC50 [2]: 900 nM

Compound: COc1cc(NC(=O)c2ccc(-c3ccccc3OC(F)(F)F)c(CCN3CC(C)OC(C)C3)c2)ccc1S(N)(=O)=O (stereo not given)
IC50 [1]: 61 nM

Compound: H-KENNALLRYLLDRDD-OH
IC50 [2]: 1400 nM

Compound: CCOc1nccc2c1[C@H](c1ccc(C#N)cc1OC)C(C#N)=C(C)N2
IC50 (Progesterone receptor): 5400 nM
IC50 [4]: 47 nM
IC50 (Androgen receptor): 2800 nM
IC50 (Glucocorticoid receptor): 6900 nM

Compound: CCC(c1ccc(Br)cc1)(C(C)O)n1ncc2c(NS(C)(=O)=O)cccc21 (stereo not given)
half-life [5]: 69 min
Inhibitory potency [6]: 7 nM
half-life [7]: 48 min

Compound: CC(C)C[C@H](NC(=O)[C@H](CC(C)C)NC(=O)[C@H](CCC(=O)O)NC(=O)[C@H](CO)NC(=O)[C@H](CS)NC(=O)[C@@H]1CCCN1C(=O)[C@H](CCCNC(=N)N)NC(=O)[C@@H](N)CCCNC(=N)N)C(=O)N[C@@H](CCCCN)C(=O)N[C@@H](Cc1ccc(O)cc1)C(=O)N[C@@H](CC(C)C)C(=O)N[C@H](C(=O)N[C@H](C(=O)N[C@@H](CC(N)=O)C(=O)N[C@@H](CC(=O)O)C(=O)O)[C@H](C)O)[C@H](C)O
IC50 [2]: 1100 nM

Other lines, results leading:

IC50 [1]: 22 nM
Compound: COc1cc(NC(=O)c2ccc(-c3ccccc3OC(F)(F)F)c(CCN(C)C3CC3)c2)ccc1S(N)(=O)=O

IC50 [1]: 31 nM
Compound: COc1cc(NC(=O)c2ccc(-c3ccccc3C(F)(F)F)c(COC(C)=O)c2)ccc1S(N)(=O)=O

IC50 [2]: 4600 nM
Compound: H-QEKHRILHKLLQNGN-OH

Kd [3]: 0.5 to 2 nM
Compound: C[C@]12CCC(=O)C=C1CC[C@@H]1[C@@H]2[C@@H](O)C[C@@]2(C)[C@H]1CC[C@]2(O)C(=O)CO [HYDROCORTISONE]

Kd [3]: 0.5 to 2 nM
Compound: C[C@]12C[C@H](O)[C@H]3[C@@H](CCC4=CC(=O)CC[C@@]43C)[C@@H]1CC[C@@H]2C(=O)CO [CORTICOSTERONE]

IC50 (Progesterone receptor): 4200 nM
IC50 [4]: 26 nM
IC50 (Androgen receptor): 2400 nM
IC50 (Glucocorticoid receptor): 5800 nM
Compound: CCOc1ncc(C)c2c1[C@H](c1ccc(C#N)cc1OC)C(C#N)=C(C)N2

Source: ChEMBL document CHEMBL4007392, “Modulating Mineralocorticoid Receptor with Non-steroidal Antagonists. New Opportunities for the Development of Potent and Selective Ligands without Off-Target Side Effects” (J Med Chem, 2017)
